IC50 and MTAP intact/deleted ratio data for 17 molecules are collected here from patent US11999727B2 (Tango Therapeutics, Inc., priority 2020, dated 2024).

Where two headings read alike, the source gives them in different places. Some results are limits rather than exact numbers.

The target of assay [1] is T1, PRMT5 (Homo sapiens, UniProt O14744).
T1 construct: purchased Viva (custom protein)
The assay can be described thus: PRMT5 biochemical IC50 assay with no cofactor. As to conditions: PRMT5, no cofactor; read-out: No Cofactor/rel IC50. The text has this:
Table 1 indicates IC50 values (μM) against PRMT5 for exemplary compounds in the presence of SAM as cofactor, with no cofactor, and with MTA as cofactor, respectively (columns 4-6). […] Ki values can be calculated from the IC50 values as described in the Examples section. As detailed in the Examples section, for the assay performed in the presence of SAM, IC50=Ki×1.5 (Ki=IC50/1.5).

Assay [2] addresses T1, PRMT5. The assay can be described thus: PRMT5 biochemical IC50 assay with MTA as cofactor. To be noted: PRMT5, MTA as cofactor; read-out: MTA IC50.
Assay [3] relates to HAP1 MTAP-intact cell line. The assay can be described thus: SDMA in-cell western assay, HAP1 MTAP-intact. As to conditions: Homo sapiens. The format is cell-based. The procedure, abridged:
(§1)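 Isogenic HAP1 pair: the MTAP-intact line expresses endogenous MTAP, and the deleted line is MTAP-null. Symmetric dimethylarginine was detected by in-cell western and IC50 values derived for each line.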

Assay [4] deals with HAP1 MTAP-deleted cell line. The assay can be described thus: SDMA in-cell western assay, HAP1 MTAP-deleted. The format is cell-based. As to conditions: for IC50: Homo sapiens; for MTAP intact/deleted ratio: IC50 ratio HAP1 MTAP-intact / HAP1 MTAP-deleted, SDMA in-cell western. Put shortly: as §1
Assay [5] has as its system HAP1 MTAP-deleted cell line. The assay can be described thus: Viability assay, MTAP-deleted cell line. Type of assay: cell-based. To be noted: Homo sapiens. The text has this: Table 1 additionally indicates IC50 values in a viability assay for the MTAP-deleted cell line (column 10), indicating the effect of treatment with compound on cell survival.
The target of assay [6] is T1, PRMT5. The assay can be described thus: PRMT5 biochemical IC50 assay with SAM as cofactor. As to conditions: PRMT5, SAM as cofactor; read-out: SAM IC50.
Where [7] appears, read: HAP1, SDMA in-cell western, HAP1 MTAP-intact, read-out: MTAP HAP1 intact IC50.
The mark [8] stands for this setting: HAP1, SDMA in-cell western, HAP1 MTAP-deleted, read-out: HAP 1 MTAP deleted IC50.
Setting [9] is: HAP1, viability IC50, MTAP-deleted cell line, read-out: HAP1 MTAP deleted viability.
Where [10] appears, read: HAP1, read-out: MTAP HAP1 intact IC50.
The mark [11] stands for this setting: HAP1, read-out: HAP1 MTAP deleted IC50.
[12] abbreviates: HAP1, read-out: HAP1 MTAP deleted viability.

T1 sequence (O14744 whole entry): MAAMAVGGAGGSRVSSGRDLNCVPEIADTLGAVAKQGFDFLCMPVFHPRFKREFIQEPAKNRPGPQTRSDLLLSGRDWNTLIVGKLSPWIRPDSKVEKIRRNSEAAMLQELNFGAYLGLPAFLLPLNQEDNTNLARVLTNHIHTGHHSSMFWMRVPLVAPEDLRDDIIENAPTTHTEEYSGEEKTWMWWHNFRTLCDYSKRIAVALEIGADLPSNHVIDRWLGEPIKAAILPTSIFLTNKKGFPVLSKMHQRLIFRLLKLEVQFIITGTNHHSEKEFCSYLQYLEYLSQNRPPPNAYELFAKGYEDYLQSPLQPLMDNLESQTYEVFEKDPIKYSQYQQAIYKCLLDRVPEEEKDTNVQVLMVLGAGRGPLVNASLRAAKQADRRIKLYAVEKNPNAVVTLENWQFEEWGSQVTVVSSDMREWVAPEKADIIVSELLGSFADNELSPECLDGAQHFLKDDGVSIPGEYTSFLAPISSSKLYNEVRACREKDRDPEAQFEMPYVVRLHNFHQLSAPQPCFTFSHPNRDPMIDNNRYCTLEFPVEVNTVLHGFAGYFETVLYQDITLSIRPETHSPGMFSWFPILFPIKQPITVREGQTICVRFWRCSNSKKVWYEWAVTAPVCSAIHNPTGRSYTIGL
T1 sequence (Q9BQA1 whole entry partner): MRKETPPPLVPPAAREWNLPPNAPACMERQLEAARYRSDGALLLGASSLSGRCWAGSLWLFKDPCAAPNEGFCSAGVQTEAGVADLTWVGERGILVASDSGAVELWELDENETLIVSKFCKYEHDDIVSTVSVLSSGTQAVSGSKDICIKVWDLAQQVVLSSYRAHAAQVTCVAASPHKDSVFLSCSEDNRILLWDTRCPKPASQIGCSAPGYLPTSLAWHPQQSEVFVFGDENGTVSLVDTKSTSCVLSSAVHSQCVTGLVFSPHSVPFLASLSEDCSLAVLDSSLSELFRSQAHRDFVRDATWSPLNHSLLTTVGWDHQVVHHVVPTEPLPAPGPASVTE

For the molecule `C[C@H]1CC[C@H](c2ccc3sccc3c2)N(C(=O)C(=O)Nc2cncc(C(N)=O)c2)C1` (single isomer, unassigned) [Compound 585], the IC50 at PRMT5 [1] is below 50 nM; on PRMT5 [2], below 50 nM; in assay [3] (setting [7]), 100 to 1000 nM; in assay [4] (setting [8]), below 100 nM; in assay [5] (setting [9]) it was below 1000 nM; on PRMT5 [6], below 50 nM. Moreover, in assay [4], the MTAP intact/deleted ratio entry was “A (an IC50 ratio greater than or equal to 10 fold)”.

On to `C[C@@H]1CC[C@@H](c2ccc3sccc3c2)N(C(=O)C(=O)Nc2cncc(C(N)=O)c2)C1` (single isomer, unassigned) [Compound 586], for which the IC50 on PRMT5 [1] was above 500 nM; on PRMT5 [2], above 500 nM; in assay [3] (setting [7]) it was above 1000 nM; in assay [4] (setting [8]) it was above 1000 nM; in assay [5] (setting [9]), above 10000 nM; at PRMT5 [6] it was above 500 nM. Besides, the MTAP intact/deleted ratio entry in assay [4] is listed as “B (an IC50 ratio greater than or equal to 3 fold but lower than 10 fold)”.

Take `CCc1cc(NC(=O)C(=O)N2C[C@@H](C)CC[C@@H]2c2ccc3[nH]ncc3c2)cnc1N` (single isomer, unassigned) [Compound 589]: the IC50 at PRMT5 [1] was below 50 nM; on PRMT5 [2], below 50 nM; in assay [3] (setting [7]) it was 100 to 1000 nM; in assay [4] (setting [8]), below 100 nM; in assay [5] (setting [9]) it was below 1000 nM; at PRMT5 [6] it was below 50 nM. In assay [4], the MTAP intact/deleted ratio result was “A (an IC50 ratio greater than or equal to 10 fold)”.

Take `C[C@H]1CC[C@H](c2ccccn2)N(C(=O)C(=O)Nc2cncc(C(N)=O)c2)C1` (single isomer, unassigned) [Compound 590]: the IC50 was 50 to 500 nM on PRMT5 [1]; below 50 nM at PRMT5 [2]; above 1000 nM in assay [3] (setting [7]); below 100 nM in assay [4] (setting [8]); 1000 to 10000 nM in assay [5] (setting [9]); below 50 nM at PRMT5 [6]. Moreover, the MTAP intact/deleted ratio result in assay [4] is “A (an IC50 ratio greater than or equal to 10 fold)”.

As to `Cc1cc(NC(=O)C(=O)N2C[C@@H](C)CC[C@@H]2c2ccc3c(c2)CNC3=O)cnc1N` (single isomer, unassigned) [Compound 591], the IC50 on PRMT5 [1] is above 500 nM; at PRMT5 [2], above 500 nM; in assay [3] (setting [7]) it was above 1000 nM; in assay [4] (setting [8]), above 1000 nM; in assay [5] (setting [9]), above 10000 nM; on PRMT5 [6], above 500 nM. Also, the MTAP intact/deleted ratio entry in assay [4] is “C (an IC50 ratio of less than 3 fold)”.

With `Cc1cc(NC(=O)C(=O)N2C[C@H](C)CC[C@H]2c2ccncc2)cnc1N` (single isomer, unassigned) [Compound 592], the IC50 is below 50 nM on PRMT5 [1]; 50 to 500 nM on PRMT5 [2]; 100 to 1000 nM in assay [3] (setting [7]); below 100 nM in assay [4] (setting [8]); 1000 to 10000 nM in assay [5] (setting [9]); 50 to 500 nM at PRMT5 [6]. For the same molecule, the MTAP intact/deleted ratio entry in assay [4] is “A (an IC50 ratio greater than or equal to 10 fold)”.

`Cc1cc([C@H]2CC[C@H](C)CN2C(=O)C(=O)Nc2cnc(N)c(C)c2)ccn1` (single isomer, unassigned) [Compound 593]: the IC50 was above 500 nM on PRMT5 [1]; above 500 nM at PRMT5 [2]; above 1000 nM in assay [3] (setting [7]); above 1000 nM in assay [4] (setting [8]); above 10000 nM in assay [5] (setting [9]); above 500 nM at PRMT5 [6]. For the same molecule, in assay [4], the MTAP intact/deleted ratio result was “B (an IC50 ratio greater than or equal to 3 fold but lower than 10 fold)”.

In the case of `Cc1cc(NC(=O)C(=O)N2C[C@H](C)CC[C@H]2c2ccc(F)c(Cl)c2)cnc1N` (single isomer, unassigned) [Compound 596], the IC50 on PRMT5 [1] is below 50 nM; on PRMT5 [2], below 50 nM; in assay [3] (setting [7]) it was 100 to 1000 nM; in assay [4] (setting [8]), below 100 nM; in assay [5] (setting [9]), below 1000 nM; on PRMT5 [6], 50 to 500 nM. For the same molecule, the MTAP intact/deleted ratio entry in assay [4] is “A (an IC50 ratio greater than or equal to 10 fold)”.

For the molecule `CC(=O)Oc1ccc([C@H]2CC[C@H](C)CN2C(=O)C(=O)Nc2cnc(N)c(C)c2)cc1` (single isomer, unassigned) [Compound 597], the IC50 was above 500 nM at PRMT5 [1]; above 500 nM on PRMT5 [2]; above 1000 nM in assay [3] (setting [7]); above 1000 nM in assay [4] (setting [8]); above 10000 nM in assay [5] (setting [9]); above 500 nM on PRMT5 [6]. Moreover, in assay [4], the MTAP intact/deleted ratio entry was “B (an IC50 ratio greater than or equal to 3 fold but lower than 10 fold)”.

On to `C[C@H]1CC[C@H](c2ccc3c(c2)OCCN3)N(C(=O)C(=O)Nc2cncc(C(N)=O)c2)C1` (single isomer, unassigned) [Compound 598], for which the IC50 was 50 to 500 nM on PRMT5 [1]; below 50 nM at PRMT5 [2]; above 1000 nM in assay [3] (setting [7]); below 100 nM in assay [4] (setting [8]); below 1000 nM in assay [5] (setting [9]); below 50 nM at PRMT5 [6]. Moreover, the MTAP intact/deleted ratio result in assay [4] is “A (an IC50 ratio greater than or equal to 10 fold)”.

On to `CC(=O)Oc1ccc([C@@H]2CC[C@@H](C)CN2C(=O)C(=O)Nc2cncc(C(N)=O)c2)cc1` (single isomer, unassigned) [Compound 599, 4-(1-(2-((5-carbamoylpyridin-3-yl)amino)-2-oxoacetyl)-5-methylpiperidin-2-yl)phenyl acetate], for which the IC50 on PRMT5 [1] is above 500 nM; at PRMT5 [2], above 500 nM; in assay [3] (setting [7]) it was above 1000 nM; in assay [4] (setting [8]), above 1000 nM; in assay [5] (setting [9]) it was above 10000 nM; at PRMT5 [6] it was above 500 nM. For the same molecule, the MTAP intact/deleted ratio entry in assay [4] is reported as “B (an IC50 ratio greater than or equal to 3 fold but lower than 10 fold)”.

Turning to `COc1ncc(NC(=O)C(=O)N2C[C@@H](C)CC[C@@H]2c2ccc3scnc3c2)cc1C(N)=O` (single isomer, unassigned) [Compound 602], the IC50 at PRMT5 [1] was below 50 nM; on PRMT5 [2], below 50 nM; in assay [3] (setting [10]), 100 to 1000 nM; in assay [4] (setting [11]) it was below 100 nM; in assay [5] (setting [12]), below 1000 nM; on PRMT5 [6] it was below 50 nM. For the same molecule, the MTAP intact/deleted ratio result in assay [4] is on record as “A (an IC50 ratio greater than or equal to 10 fold)”.

Take `COc1ncc(NC(=O)C(=O)N2C[C@H](C)CC[C@H]2c2ccc3scnc3c2)cc1C(N)=O` (single isomer, unassigned) [Compound 603]: the IC50 was above 500 nM on PRMT5 [1]; above 500 nM on PRMT5 [2]; above 1000 nM in assay [3] (setting [10]); above 1000 nM in assay [4] (setting [11]); above 10000 nM in assay [5] (setting [12]); above 500 nM at PRMT5 [6]. In assay [4], the MTAP intact/deleted ratio result is reported as “C (an IC50 ratio of less than 3 fold)”.

As to `CC(=O)Oc1ccc([C@H]2CC[C@H](C)CN2C(=O)C(=O)Nc2cncc(C(N)=O)c2)cc1` (single isomer, unassigned) [Compound 604, 4-(1-(2-((5-carbamoylpyridin-3-yl)amino)-2-oxoacetyl)-5-methylpiperidin-2-yl)phenyl acetate], the IC50 on PRMT5 [1] was 50 to 500 nM; at PRMT5 [2], 50 to 500 nM; in assay [3] (setting [7]), 100 to 1000 nM; in assay [4] (setting [8]), below 100 nM; in assay [5] (setting [9]), below 1000 nM; at PRMT5 [6], below 50 nM. Moreover, in assay [4], the MTAP intact/deleted ratio entry is recorded as “A (an IC50 ratio greater than or equal to 10 fold)”.

`Cc1cc(NC(=O)C(=O)N2C[C@@H](C)CC[C@@H]2c2ccc(F)c(Cl)c2)cnc1N` (single isomer, unassigned) [Compound 606]: the IC50 is above 500 nM at PRMT5 [1]; above 500 nM at PRMT5 [2]; above 1000 nM in assay [3] (setting [7]); above 1000 nM in assay [4] (setting [8]); above 10000 nM in assay [5] (setting [9]); above 500 nM at PRMT5 [6]. For the same molecule, the MTAP intact/deleted ratio entry in assay [4] was “B (an IC50 ratio greater than or equal to 3 fold but lower than 10 fold)”.

`C[C@@H]1CC[C@@H](c2ccc(N)cn2)N(C(=O)C(=O)Nc2cncc(C(N)=O)c2)C1` (single isomer, unassigned) [Compound 607]: the IC50 at PRMT5 [1] was above 500 nM; on PRMT5 [2], 50 to 500 nM; in assay [3] (setting [7]) it was above 1000 nM; in assay [4] (setting [8]) it was above 1000 nM; in assay [5] (setting [9]), above 10000 nM; on PRMT5 [6] it was 50 to 500 nM. Further, in assay [4], the MTAP intact/deleted ratio result is given as “B (an IC50 ratio greater than or equal to 3 fold but lower than 10 fold)”.

`Cc1cc([C@@H]2CC[C@@H](C)CN2C(=O)C(=O)Nc2cnc(N)c(C)c2)ccn1` (single isomer, unassigned) [Compound 608]: the IC50 on PRMT5 [1] is below 50 nM; on PRMT5 [2] it was below 50 nM; in assay [3] (setting [7]) it was 100 to 1000 nM; in assay [4] (setting [8]), below 100 nM; in assay [5] (setting [9]), below 1000 nM; at PRMT5 [6] it was below 50 nM. Moreover, in assay [4], the MTAP intact/deleted ratio result was “A (an IC50 ratio greater than or equal to 10 fold)”.
